The subject of experiment [1] is E. coli A15119. Put plainly: in vitro MIC vs. E. coli A15119. In kind it is cell-based. The settings on record: Escherichia coli. The source says: Also included in the table is the in vitro MIC's.
(§1) MIC (mcg/ml) i.m. vs E. coli A15119

Experiment [2] concerns E. coli A15119. Put plainly: in vivo therapeutic efficacy after intramuscular administration to mice infected intraperitoneally (PD50). The settings on record: Escherichia coli, A15119, im. The procedure:
The in vivo therapeutic efficacy of two representative compounds after intramuscular administration to mice infected intraperitoneally with 0.5 ml of various bacterial suspension is shown in Table I. The values are given in PD50 (dose in mg/kg) to give protection to 50% of the infected mice.
as §1

The mark [3] stands for this setting: read-out: PD50 i.m. vs E. coli A15119, 41 LD50.

Molecules are shown by their SMILES. In brackets after ≈: the same amount, converted by molar mass. Where two headings read alike, the source gives them in different places. A value given as a limit tells only on which side of the number the result lay.

As usually defined, the MIC is the least concentration at which growth counts as inhibited. A higher MIC goes with a less susceptible organism.

`CO/N=C(\C(=O)N[C@@H]1C(=O)N2C(C(=O)O)=C(c3c(N)c(=O)c3=O)CC[C@H]12)c1csc(N)n1` (relative stereo) [Id6] displayed a minimum inhibitory concentration (MIC) against E. coli A15119 [1] of 0.06 µg/mL (≈ 0.13 µM). Moreover, the ED50 with E. coli A15119 [2] (setting [3]) was below 0.098 mg/kg; with E. coli A15119 [2] (read-out: PD50 i.m. vs E. coli A15119, 143 LD50) it was 1.7 mg/kg.

In turn, `CO/N=C(\C(=O)N[C@@H]1C(=O)N2C(C(=O)O)=C(c3c(OC(C)C)c(=O)c3=O)CS[C@H]12)c1csc(N)n1` [Id3] displayed an MIC against E. coli A15119 [1] of 1 µg/mL (≈ 1.92 µM). For the same compound, the ED50 in the experiment on E. coli A15119 [2] (setting [3]) is 1.4 mg/kg; in the experiment on E. coli A15119 [2] (mice, i.m. dosing, infected i.p. with 0.5 ml bacterial suspension, challenge 143 LD50, dose protecting 50% of infected mice, read-out: PD50 i.m. vs E. coli A15119, 143 LD50) it was above 25 mg/kg.

Values taken from patent publication US5106842A, “Antibiotic C-3 cyclobutenedione substituted (1-carba)cephalosporin compounds, compositions, and methods of use thereof” (Bristol-Myers Squibb Co., priority 1990, dated 1992).
